Assay [1] concerns gastric epithelial cells (AGS). Nature of the assay: Cytotoxicity, MTT reduction assay, AGS. The settings on record: Homo sapiens, Epithelial cell, confluent cultures, 24 h, read-out: IC50 ± SD, AGS. In kind it is cell-based. As for the experimental part:
(§1) The human cell lines, MRC-5 normal lung fibroblasts (CCL-171), AGS gastric epithelial adenocarcinoma cells (CRL-1739) and HepG2 hepatocellular carcinoma cells (HB-8065) were obtained from the American Type Culture Collection (ATCC, Manasas, VA, USA). The cells were grown as monolayers in the following media: MRC-5 and HepG2 in MEM and AGS in Ham F-12. The MEM medium contained 2 mM L-glutamine, 1 mM sodium pyruvate and 1.5 g/L sodium bicarbonate. Ham F-12 was supplemented with 2 mM L-glutamine and 1.5 g/L sodium bicarbonate. Both media were supplemented with 10% heat inactivated fetal bovine serum, 100 IU/mL penicillin and 100 µg/mL streptomycin in a humidified incubator with 5% CO2 in air at 37 °C. For the experiments, cells were plated at a density of 25,000 cells/mL in 96-well plates. […] Compounds were first dissolved in DMSO and then in medium. The final concentration of DMSO in the test medium and controls was 1%. […] The cell viability for each compound was calculated comparing the cell viability of the untreated controls (100%) with the cell viability of the different concentrations of each compound. Each concentration was tested in quadruplicate together with the control and repeated three times in separate experiments. Cell viability was determined at the end of the incubation by means of the MTT reduction assay. Results were converted to percentage of controls, and the IC50 values were graphically obtained from the dose-response curves. Culture media, antibiotics and fetal bovine serum were obtained from Invitrogen Corp. (Waltham, MA, USA). Other reagents were purchased from Sigma Chemical Co. For the animal experiments all values are presented as median ± SEM. Drug-induced changes were statistically estimated using the Kruskall-Wallis test for comparison between groups and testing, and the Mann-Whitney test was used in the independent data for individual comparisons. The effects were considered significant if p ≤ 0.05. For cytotoxicity experiments, each concentration was tested in quadruplicate together with the control and repeated three times in different experiments. Results are expressed as IC50 values (µM) ± S.D.

Assay [2] has as its system mice ear edema induced by arachidonic acid. Nature of the assay: Topical anti-inflammatory effect, arachidonic acid (AA) induced ear edema in mice. The settings on record: 3.2 µmol/mouse; for % TAAA ± SEM (percent reduction of the ear edema, arachidonic acid) / inhibition in vivo at 3.2 µmol/animal: 1 h after AA; for % TAAA ± SEM (percent reduction of the ear edema, arachidonic acid): n = 8; for inhibition in vivo at 3.2 µmol/animal: n = 8, read-out: % TAAA ± SEM (percent reduction of the ear edema, arachidonic acid). In kind it is in vivo. As for the experimental part: (§2) The inflammatory agent arachidonic acid (AA) and phorbol 12-myristate 13-acetate (TPA) were used to assess the anti-inflammatory effect/action mechanism of the starting compounds, new synthetic products and reference drugs. […] Adult male CF-1 mice (20–25 g), obtained from a stock maintained at the Chilean Public Health Institute, were used to assess the anti-inflammatory effect. All animals were housed in a climate- and light-controlled room with a 12 h light-dark cycle, fasted overnight before the day of the assays, with free access to water. The anti-inflammatory activity of each compound was evaluated in groups of 8 treated and 16 control mice. Due to ethical considerations, the number of animals was kept to a minimum and single dose experiments were carried out.
(§3) The pro-inflammatory agents TPA and AA, the reference drugs indomethacin and nimesulide were from Sigma. […] After 5 min, inflammation was induced by the application of 20 µL TPA or AA (5 mg/mL) in acetone. […] Control subjects only received TPA or AA. Both, the sample and the TPA or AA, were applied to the inner (10 µL) and outer (10 µL) surfaces of the right ear. The left ear only received acetone. Mice were sacrificed by cervical dislocation (after 6 h of TPA and 1 h AA), and a 6 mm diameter section of the right and left ears were cut and weighed. The weight differences between both ear sections correspond to the edema value. The percent topical anti-inflammatory activity (TA) was evaluated according to the following equation: (1) %TA=[ Wc−Ws/Wc]× 100 where Wc and Ws are the different median values of the weights of the right and the left ear sections of the control and the treated animals, respectively.
(§4) For the animal experiments all values are presented as median ± SEM. Drug-induced changes were statistically estimated using the Kruskall-Wallis test for comparison between groups and testing, and the Mann-Whitney test was used in the independent data for individual comparisons. The effects were considered significant if p ≤ 0.05. For cytotoxicity experiments, each concentration was tested in quadruplicate together with the control and repeated three times in different experiments. Results are expressed as IC50 values (µM) ± S.D.

A further assay deals with hepatocytes HepG2. The assay is described as follows: Cytotoxicity, MTT reduction assay, HepG2. Type of assay: cell-based. The conditions noted are these: Homo sapiens, confluent cultures, 24 h, read-out: IC50 ± SD, HepG2. As for the experimental part: as §1, with “Results were converted to percentage of controls, and the IC50 values were graphically obtained from the dose-response curves.” left out
(In general: Tetrazolium assays rely on reduction of a dye to a coloured formazan, in cell work by metabolically active cells.)

The subject of assay [3] is mice ear edema induced by 12-O-tetradecanoylphorbol 13-acetate. The assay is described as follows: Topical anti-inflammatory effect, 12-O-tetradecanoylphorbol 13-acetate (TPA) induced ear edema in mice. Type of assay: in vivo. The conditions noted are these: 1.4 µmol/mouse; for % TATPA ± SEM (percent reduction of the ear edema, TPA) / inhibition in vivo at 1.4 µmol/animal: 6 h after TPA; for % TATPA ± SEM (percent reduction of the ear edema, TPA): n = 8; for inhibition in vivo at 1.4 µmol/animal: n = 8, read-out: % TATPA ± SEM (percent reduction of the ear edema, TPA). As for the experimental part:
as §2, §3, §4

Another assay concerns lung fibroblasts (MRC-5). Nature of the assay: Cytotoxicity, MTT reduction assay, MRC-5. The conditions noted are these: Homo sapiens, MRC5, confluent cultures, 24 h, read-out: IC50 ± SD, MRC-5. Type of assay: cell-based. As for the experimental part:
as §1

The subject of assay [4] is human lung fibroblasts (MRC-5), gastric epithelial cells (AGS) and hepatocytes HepG2. The assay is described as follows: Cytotoxicity, MTT reduction assay, summary over the three cell lines. In kind it is cell-based. The settings on record: Homo sapiens; MRC-5, AGS and HepG2, 24 h, MTT; read-out: IC50 values, range over the three cell lines. As for the experimental part: as §1

The values that follow come from article PMC6272242, “Topical Anti-inflammatory Activity of New Hybrid Molecules of Terpenes and Synthetic Drugs” (Molecules, 2015).

Bounds are passed on as bounds.

`CC(C)Cc1ccc([C@H](C)C(=O)O[C@H]2CC[C@@]3(C)C(CC[C@]4(C)C3CC=C3C5CC(C)(C)CC[C@]5(C(=O)O)CC[C@]34C)C2(C)C)cc1` (mixture of isomers) [Compound 12, Oleanoyl ibuprofenate]: the IC50 (as a rule, the concentration that gives 50% inhibition) in assay [1] amounted to 526 ± 19 µM. For the same molecule, in assay [2], the “Activity in the AA model, in words” value is recorded as “significant effect”; the “% TAAA ± SEM (percent reduction of the ear edema, arachidonic acid)” value stood at 56.8 ± 7.4 %; the inhibition in vivo at 3.2 µmol/animal was 56.8%. Moreover, the IC50 with hepatocytes HepG2 is above 1000 µM. Also, in assay [3], the “% TATPA ± SEM (percent reduction of the ear edema, TPA)” value turned out to be 79.9 ± 10.6 % and the inhibition in vivo at 1.4 µmol/animal is 79.9%. In addition, in the assay on lung fibroblasts (MRC-5), the IC50 worked out at 616 ± 32 µM.
On to `COC(=O)[C@]12CCC(C)(C)CC1C1=CCC3[C@@]4(C)CC[C@H](OC(=O)[C@@H](C)c5ccc6cc(OC)ccc6c5)C(C)(C)C4CC[C@@]3(C)[C@]1(C)CC2` (stereo partly shown) [Compound 15, Oleanoyl naproxenate methyl ester], for which the IC50 in assay [1] was 593 ± 31 µM; in the assay on hepatocytes HepG2, above 1000 µM; with lung fibroblasts (MRC-5) it was 816 ± 42 µM. Besides, the inhibition in vivo at 3.2 µmol/animal in assay [2] was determined as 2.7 ± 8.1%. In addition, the “% TATPA ± SEM (percent reduction of the ear edema, TPA)” value in assay [3] turned out to be 80.0 ± 11.0 %. For the same molecule, in assay [3], the inhibition in vivo at 1.4 µmol/animal was found to be 80%.
Consider `CC1(C)CC[C@]2(C(=O)O)CC[C@]3(C)C(=CC[C@@H]4[C@@]5(C)CC[C@H](O)C(C)(C)[C@@H]5CC[C@]43C)[C@@H]2C1` [Compound 3, oleanolic acid, reference compound], for which the IC50 in assay [1] turned out to be 234 ± 16 µM. Moreover, in assay [2], the “Activity in the AA model, in words” value was “inactive” and the inhibition in vivo at 3.2 µmol/animal was 2.7 ± 7.5%. Moreover, in the assay on hepatocytes HepG2, the IC50 came out at 170 ± 5 µM. Moreover, in assay [3], the “Activity in the TPA assay, in words” value was “active”; the “% TATPA ± SEM (percent reduction of the ear edema, TPA)” value is 70.2 ± 8.3 *^,a %; the inhibition in vivo at 1.4 µmol/animal turned out to be 70.2 ± 8.3%. Moreover, the half-inhibitory concentration (IC50) in the assay on lung fibroblasts (MRC-5) worked out at 186 ± 9 µM.
Consider `COc1ccc2cc([C@H](C)C(=O)O[C@H]3CC[C@@]4(C)C(CC[C@]5(C)C4CC=C4C6CC(C)(C)CC[C@]6(C(=O)O)CC[C@]45C)C3(C)C)ccc2c1` (stereo partly shown) [Compound 14, Oleanoyl naproxenate], for which the IC50 is 486 ± 26 µM in assay [1], above 1000 µM with hepatocytes HepG2 and 554 ± 22 µM in the assay with lung fibroblasts (MRC-5). In assay [2], the inhibition in vivo at 3.2 µmol/animal came out at 9 ± 11.3%. The inhibition in vivo at 1.4 µmol/animal in assay [3] amounted to 55.5 ± 5.1%.
Regarding `COc1ccc2cc([C@H](C)C(=O)Oc3cc4c(cc3C(C)C)CCC3C(C)(C)CCC[C@]43C)ccc2c1` (stereo partly shown) [Compound 7, Ferruginyl naproxenate], the IC50 in assay [1] was 874 ± 49 µM; in the assay with hepatocytes HepG2, above 1000 µM; with lung fibroblasts (MRC-5), 945 ± 56 µM; in assay [4], at least 874 µM. Also, the inhibition in vivo at 3.2 µmol/animal in assay [2] amounted to 26.6 ± 4.1%. For the same molecule, the inhibition in vivo at 1.4 µmol/animal in assay [3] came to 26.8 ± 3.8%.
As for `C=C1CCC2[C@](C)(CCC[C@]2(C)C(=O)O)[C@H]1CC[C@@H](C)CCOC(=O)[C@@H](C)c1ccc(CC(C)C)cc1` (mixture of isomers) [Compound 8, Imbricatol-15-yl ibuprofenate], the IC50 was 23 ± 1 µM in assay [1], 79 ± 8 µM in the assay with hepatocytes HepG2, 34 ± 2 µM in the assay with lung fibroblasts (MRC-5) and 23 to 79 µM in assay [4]. The inhibition in vivo at 3.2 µmol/animal in assay [2] worked out at 10 ± 6%. In addition, the inhibition in vivo at 1.4 µmol/animal in assay [3] was 40.3 ± 2.4%.
In the case of `C=C1CCC2[C@](C)(CCC[C@]2(C)C(=O)OC)[C@H]1CC[C@@H](C)CCOC(=O)[C@@H](C)c1ccc(CC(C)C)cc1` (mixture of isomers) [Compound 9, Imbricatol-15-yl ibuprofenate methyl ester], the IC50 in assay [1] was 623 ± 39 µM; in the assay with hepatocytes HepG2, 746 ± 38 µM; in the assay on lung fibroblasts (MRC-5), 706 ± 35 µM; in assay [4] it was at least 601 µM. In addition, in assay [2], the inhibition in vivo at 3.2 µmol/animal is 14.9 ± 7.4%. Further, the inhibition in vivo at 1.4 µmol/animal in assay [3] came out at 41.2 ± 6.2%.
Regarding `COc1ccc2c(c1)c(CC(=O)O)c(C)n2C(=O)c1ccc(Cl)cc1` [Indomethacin, reference compound], in assay [3], the “% TATPA ± SEM (percent reduction of the ear edema, TPA)” value is given as “↑92.9 ± 13.2 %” and the inhibition in vivo at 1.4 µmol/animal stood at 92.9%.
Take `COc1cc([C@@H]2c3cc4c(cc3[C@@H](O[C@@H]3O[C@@H]5CO[C@@H](C)O[C@H]5[C@H](O)[C@H]3O)[C@H]3COC(=O)[C@H]23)OCO4)cc(OC)c1O` [Etoposide, reference compound]: the IC50 was determined as 0.36 ± 0.02 µM in assay [1], 2.4 ± 0.1 µM with hepatocytes HepG2 and 3.9 ± 0.1 µM in the assay with lung fibroblasts (MRC-5).
On to `CS(=O)(=O)Nc1ccc([N+](=O)[O-])cc1Oc1ccccc1` [Nimesulide, reference compound], for which, in assay [2], the “% TAAA ± SEM (percent reduction of the ear edema, arachidonic acid)” value is “↑48.9 ± 5.5 %” and the inhibition in vivo at 3.2 µmol/animal is 48.9%.
On to `COc1ccc2cc([C@H](C)C(=O)O)ccc2c1` [Compound 5, naproxen, reference compound], for which the half-maximal inhibitory concentration (IC50) (in assay [1]; in the assay on lung fibroblasts (MRC-5)) was above 1000 µM throughout. Also, in assay [2], the “Activity in the AA model, in words” value was “inactive”. In addition, in assay [3], the inhibition in vivo at 1.4 µmol/animal is 29.9 ± 6.2%.
With `COC(=O)[C@]12CCC(C)(C)CC1C1=CCC3[C@@]4(C)CC[C@H](OC(=O)[C@@H](C)c5ccc(CC(C)C)cc5)C(C)(C)C4CC[C@@]3(C)[C@]1(C)CC2` (mixture of isomers) [Compound 13, Oleanoyl ibuprofenate methyl ester], the half-maximal inhibitory concentration (IC50) in assay [1] amounted to 454 ± 21 µM; in the assay on hepatocytes HepG2, 742 ± 48 µM; in the assay on lung fibroblasts (MRC-5) it was 402 ± 20 µM. In assay [2], the inhibition in vivo at 3.2 µmol/animal came out at 19.5 ± 9.2%. Also, in assay [3], the inhibition in vivo at 1.4 µmol/animal was 47.4 ± 2.6%.
